Data set [1] relates to acute manic or mixed bipolar episodes. Conditions: cotherapy vs monotherapy.
Data set [2] deals with acute mania in adolescents with bipolar disorder. The experiment in a line: double-blind, randomized, placebo-controlled study as adjunctive treatment to divalproex for adolescent mania (Examples 7 and 8). It is filed as in vivo, human.
Where [3] appears, read: DVP + about 10 mg/day, 6 weeks, vs DVP+placebo.

The values below come from US9125939B2, “Carbostyril derivatives and mood stabilizers for treating mood disorders” (Otsuka Pharmaceutical Co., Ltd., priority 2003, dated 2015).

The structures appear in SMILES notation.

As for `O=C1CCc2ccc(OCCCCN3CCN(c4cccc(Cl)c4Cl)CC3)cc2N1` [aripiprazole, 7-{4-[4-(2,3-dichlorophenyl)-1-piperazinyl]butoxy}-3,4-dihydro-2(1H)-quinolinone], the HAMD-21 total scores entry in data set [1] is reported as “total scores more than monotherapy”. In addition, in data set [2] (setting [3]), the YMRS response rate result is reported as “significantly greater” and the “reduction in YMRS scores from baseline to endpoint” value is given as “greater reduction”. For the same molecule, in data set [2] (DVP combination vs DVP+placebo), the “Sedation, rated as mild or moderate” value is given as “more common” and the “safety measures, group differences from baseline to endpoint” value is reported as “No significant group differences”. Moreover, the “tolerability in combination with DVP” value in data set [2] (treatment of mania) was “well tolerated”.
